Laboratory results reported in patent US9850283B2, “Macrocyclic inhibitors of the PD-1/PD-L1 and CD80(B7-1)/PD-L1 protein/protein interactions” (BRISTOL-MYERS SQUIBB COMPANY, priority 2013, dated 2017).
pIC50: −log10 of the molar value. Read-outs that look alike come from different tables or passages of the source. Positions of bridges follow the written chain, without caps; N, C: chain ends. Non-standard residues stand in square brackets, D forms with d. Residues, ends and D or L forms follow the SMILES beside them. ξ: configuration not given here. Bta = N[C@@H](Cc1csc2ccccc12)C(=O)O; ξPro(4R-OH) = O=C(O)C1C[C@@H](O)CN1; Hyp = O=C(O)[C@@H]1C[C@@H](O)CN1; NMeF = CN[C@@H](Cc1ccccc1)C(=O)O; 3Pal = N[C@@H](Cc1cccnc1)C(=O)O; NMeNle = CCCC[C@H](NC)C(=O)O; dPip = O=C(O)[C@H]1CCCCN1; NMeA = CN[C@@H](C)C(=O)O; Nle = CCCC[C@H](N)C(=O)O; Dab = NCC[C@H](N)C(=O)O; Dap = NC[C@H](N)C(=O)O; ξC = NC(CS)C(=O)O; Sar = CNCC(=O)O

Columns and labels:
[1] = molecular target: T1, LK35.2-hPD-L1 cells / PE-labeled PD-1-Ig (Homo sapiens, UniProt Q9NZQ7); assay: LK35.2-hPD-L1 cell binding high-content screening assay; format: cell-based
T1 construct: expressed in transfected cells; host or cells: LK35.2 mouse B cell line
T1 sequence (Q9NZQ7 19-290): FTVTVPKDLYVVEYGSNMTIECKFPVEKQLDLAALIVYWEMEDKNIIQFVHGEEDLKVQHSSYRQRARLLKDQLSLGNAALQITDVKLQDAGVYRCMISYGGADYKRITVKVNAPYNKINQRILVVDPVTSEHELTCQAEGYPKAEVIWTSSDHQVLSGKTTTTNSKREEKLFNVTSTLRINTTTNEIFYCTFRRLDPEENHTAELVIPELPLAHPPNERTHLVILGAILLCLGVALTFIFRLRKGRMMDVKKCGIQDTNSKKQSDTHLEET
Method in brief: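 Mouse LK35.2 B cells stably overexpressing human PD-L1 were cultured overnight in RPMI with 10% FCS, then given compound and PE-labeled human PD-1-Ig (1 nM final) for 1 h at 37 °C. After three dPBS washes, bound fluorescence was quantified by high-content imaging.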

[2] = molecular target: T2, Human PD-L1/PD-1 (Homo sapiens, UniProt Q9NZQ7); assay: HTRF PD-1-Ig/PD-L1-His binding assay (human PD-L1); conditions: cluster symbol; read-out: HTRF IC50 cluster
T2 construct: made in house; host or cells: HEK293T
T2 sequence (Q9NZQ7 with tags, fused parts or gaps): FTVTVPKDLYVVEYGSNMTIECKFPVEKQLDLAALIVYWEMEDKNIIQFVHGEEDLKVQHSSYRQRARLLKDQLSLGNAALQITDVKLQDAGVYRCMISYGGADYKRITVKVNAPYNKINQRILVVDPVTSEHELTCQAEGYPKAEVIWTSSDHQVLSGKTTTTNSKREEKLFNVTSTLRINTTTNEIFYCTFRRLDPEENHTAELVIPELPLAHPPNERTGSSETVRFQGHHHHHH
Method in brief: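 Readout: time-resolved FRET between Eu cryptate-labeled anti-Ig (1 nM final) and APC-labeled anti-His (20 nM final) antibodies. These detect interaction of Fc-fused PD-1 with His-tagged human PD-L1 in dPBS containing 0.1% BSA and 0.05% Tween-20.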

[3] = cell binding assay, cell line not given, cluster symbol, read-out: CBA IC50 cluster
[4] = cluster symbol, cell line of CBA not given (LK35.2-hPD-L1 or 293T-hPD-L1), read-out: CBA IC50 cluster

| SMILES | pIC50 [1, 3] | pIC50 [2] | pIC50 [1, 4] | pIC50 ([1]; cell binding assay, cell line not given, value given instead of cluster, read-out: CBA IC50 value) |
| --- | --- | --- | --- | --- |
| CCCC[C@H]1C(=O)N(C)[C@@H](CCCC)C(=O)N[C@@H](CCCNC(=N)N)C(=O)N[C@H](C(=O)NCC(N)=O)CSCC(=O)N[C@@H](Cc2cccnc2)C(=O)N(C)[C@@H](C)C(=O)N[C@@H](CC(N)=O)C(=O)N2CCC[C@H]2C(=O)N[C@@H](Cc2c[nH]cn2)C(=O)N[C@@H](CC(C)C)C(=O)N2C[C@H](O)C[C@H]2C(=O)N[C@@H](Cc2c[nH]c3ccccc23)C(=O)N[C@@H](CO)C(=O)N[C@@H](Cc2c[nH]c3ccccc23)C(=O)N1C [Example 7024] ({CH2CO}-[3Pal][NMeA]NPHL[Hyp]WSW[NMeNle][NMeNle]RCG-NH2; thioether N-14) | 7.14 to 8.32 | 7.52 to 8.17 |  |  |
| CCCC[C@H]1C(=O)N(C)CC(=O)N[C@@H](CC(=O)O)C(=O)N[C@@H](C(C)C)C(=O)N(C)[C@@H](Cc2ccccc2)C(=O)N[C@@H](Cc2ccc(O)cc2)C(=O)N(C)CC(=O)N[C@@H](Cc2c[nH]c3ccccc23)C(=O)N[C@@H](Cc2ccc(O)cc2)C(=O)N[C@H](C(=O)NCC(N)=O)CSCC(=O)N[C@@H](Cc2ccccc2)C(=O)N(C)[C@@H](Cc2ccccc2)C(=O)N1C [Example 3054] (HELM PEPTIDE1{[O=C(C[*:3])[*:2]].F.[meF].[CCCC[C@@H](C(=O)[*:2])N(C)[*:1]].[Sar].D.V.[meF].Y.[Sar].W.Y.C.G.[am]}$PEPTIDE1,PEPTIDE1,1:R3-13:R3$$$V2.0) |  | < 7.52 | < 7.13 |  |
| CCCC[C@@H]1NC(=O)[C@H](Cc2cnc[nH]2)NC(=O)[C@@H]2CCCN2C(=O)[C@H](CC(N)=O)NC(=O)[C@H](C)N(C)C(=O)[C@H](Cc2ccc(O)cc2)NC(=O)CSCC(C(=O)NCC(N)=O)NC(=O)[C@H](CCCNC(=N)N)NC(=O)[C@H](CCCC)N(C)C(=O)[C@H](CCCC)N(C)C(=O)[C@H](Cc2csc3ccccc23)NC(=O)[C@H](CO)NC(=O)[C@H](Cc2c[nH]c3ccccc23)NC(=O)[C@H]2CCCN2C1=O (stereo partly shown) [Example 9002] ({CH2CO}-Y[NMeA]NPH[Nle][dP]WS[Bta][NMeNle][NMeNle]R[ξC]G-NH2; thioether N-14) | 7.14 to 8.32 | 7.52 to 8.17 |  |  |
| CCCC[C@H]1C(=O)N(C)[C@@H](CCCC)C(=O)N[C@@H](CCCNC(=N)N)C(=O)N[C@H](C(=O)NCC(N)=O)CSCC(=O)N[C@@H](Cc2ccccc2)C(=O)N(C)[C@@H](C)C(=O)N[C@@H](CC(N)=O)C(=O)N2CCC[C@H]2C(=O)N[C@@H](Cc2cnc[nH]2)C(=O)N[C@@H](C(C)C)C(=O)N(C)CC(=O)N[C@@H](Cc2c[nH]c3ccccc23)C(=O)N[C@@H](CO)C(=O)N[C@@H](Cc2c[nH]c3ccccc23)C(=O)N1C [Example 6007] ({CH2CO}-F[NMeA]NPHV[Sar]WSW[NMeNle][NMeNle]RCG-NH2; thioether N-14) | 7.14 to 8.32 | 7.52 to 8.17 |  |  |
| CCCC[C@H]1C(=O)N(C)[C@@H](CCCC)C(=O)N[C@@H](CO)C(=O)N[C@H](C(=O)NCC(N)=O)CSCC(=O)N[C@@H](Cc2ccc(O)cc2)C(=O)N(C)[C@@H](C)C(=O)N[C@@H](CCN)C(=O)N2CCC[C@H]2C(=O)N[C@@H](Cc2c[nH]cn2)C(=O)N[C@@H](CCC(=O)O)C(=O)N2C[C@H](O)C[C@H]2C(=O)N[C@@H](Cc2c[nH]c3ccccc23)C(=O)N[C@@H](C(C)C)C(=O)N[C@@H](Cc2c[nH]c3ccccc23)C(=O)N1C [Example 5097] ({CH2CO}-Y[NMeA][Dab]PHE[Hyp]WVW[NMeNle][NMeNle]SCG-NH2; thioether N-14) |  | 7.52 to 8.17 |  | 7.13 |
| CC(C)C[C@@H]1NC(=O)[C@H](Cc2ccc(O)cc2)NC(=O)[C@H](Cc2c[nH]c3ccccc23)NC(=O)CN(C)C(=O)[C@H](Cc2ccc(O)cc2)NC(=O)[C@H](Cc2ccccc2)N(C)C(=O)[C@H](C(C)C)NC(=O)[C@H](CC(=O)O)NC(=O)CN(C)C(=O)[C@H](CC(C)C)N(C)C(=O)[C@H](Cc2ccccc2)N(C)C(=O)[C@H](Cc2ccccc2)NC(=O)CSC[C@@H](C(=O)NCC(N)=O)NC1=O [Example 3136] (HELM PEPTIDE1{[O=C(C[*:3])[*:2]].F.[meF].[meL].[Sar].D.V.[meF].Y.[Sar].W.Y.L.C.G.[am]}$PEPTIDE1,PEPTIDE1,1:R3-14:R3$$$V2.0) |  | 7.52 to 8.17 | 7.14 to 8.32 |  |
| CCCC[C@H]1C(=O)N2CCCC[C@@H]2C(=O)N[C@@H](CC(=O)O)C(=O)N[C@@H](C(C)C)C(=O)N(C)[C@@H](Cc2ccccc2)C(=O)N[C@@H](Cc2ccc(O)cc2)C(=O)N(C)CC(=O)N[C@@H](Cc2c[nH]c3ccccc23)C(=O)N[C@@H](Cc2ccc(O)cc2)C(=O)N[C@@H](CC(C)C)C(=O)N[C@H](C(=O)NCC(N)=O)CSCC(=O)N[C@@H](Cc2ccccc2)C(=O)N(C)[C@@H](Cc2ccccc2)C(=O)N1C [Example 3573] ({CH2CO}-F[NMeF][NMeNle][dPip]DV[NMeF]Y[Sar]WYLCG-NH2; thioether N-13) | 7.14 to 8.32 | 7.52 to 8.17 |  |  |
| CCCC[C@H]1C(=O)N(C)[C@@H](CCCC)C(=O)N[C@@H](CN)C(=O)N[C@H](C(=O)NCC(N)=O)CSCC(=O)N[C@@H](Cc2ccc(O)cc2)C(=O)N(C)[C@@H](C)C(=O)N[C@@H](CC(N)=O)C(=O)N2CCC[C@H]2C(=O)N[C@@H](CN)C(=O)N[C@@H](CCC(=O)O)C(=O)N2C[C@H](O)C[C@H]2C(=O)N[C@@H](Cc2c[nH]c3ccccc23)C(=O)N[C@@H](CO)C(=O)N[C@@H](Cc2csc3ccccc23)C(=O)N1C [Example 1162] ({CH2CO}-Y[NMeA]NP[Dap]E[Hyp]WS[Bta][NMeNle][NMeNle][Dap]CG-NH2; thioether N-14) |  | 8.17 to 9.41 | 8.33 to 9.80 |  |
| CCCC[C@H]1C(=O)N(C)[C@@H](CCCC)C(=O)N[C@@H](CC(=O)O)C(=O)N[C@H](C(=O)NCC(N)=O)CSCC(=O)N[C@@H](Cc2ccccc2)C(=O)N(C)[C@@H](C)C(=O)N[C@@H](CC(N)=O)C(=O)N2CCC[C@H]2C(=O)N[C@@H](Cc2cnc[nH]2)C(=O)N[C@@H](CC(C)C)C(=O)N(C)CC(=O)N[C@@H](Cc2c[nH]c3ccccc23)C(=O)N[C@@H](CO)C(=O)N[C@@H](Cc2c[nH]c3ccccc23)C(=O)N1C [Example 5030] ({CH2CO}-F[NMeA]NPHL[Sar]WSW[NMeNle][NMeNle]DCG-NH2; thioether N-14) | < 7.13 | < 7.52 |  |  |
| CCCC[C@H]1C(=O)N(C)[C@@H](CCCC)C(=O)N[C@@H](CN)C(=O)N[C@H](C(=O)NCC(N)=O)CSCC(=O)N[C@@H](Cc2ccc(O)cc2)C(=O)N2CCC[C@H]2C(=O)N[C@@H](CC(=O)O)C(=O)N2CCC[C@H]2C(=O)N[C@@H](CN)C(=O)N[C@@H](CCC(N)=O)C(=O)N2C[C@H](O)CC2C(=O)N[C@@H](Cc2c[nH]c3ccccc23)C(=O)N[C@@H](CCN)C(=O)N[C@@H](Cc2csc3ccccc23)C(=O)N1C (stereo partly drawn) [Example 1228] ({CH2CO}-YPDP[Dap]Q[ξPro(4R-OH)]W[Dab][Bta][NMeNle][NMeNle][Dap]CG-NH2; thioether N-14) |  | 7.52 to 8.17 | 7.14 to 8.32 |  |
| CCCC[C@H]1C(=O)N(C)[C@@H](CCCC)C(=O)N[C@@H](CCN)C(=O)N[C@H](C(=O)NCC(N)=O)CSCC(=O)N[C@@H](Cc2ccc(O)cc2)C(=O)N(C)[C@@H](C)C(=O)N[C@@H](CC(N)=O)C(=O)N2CCC[C@H]2C(=O)N[C@@H](CN)C(=O)N[C@@H](CCC(N)=O)C(=O)N2C[C@H](O)C[C@H]2C(=O)N[C@@H](Cc2c[nH]c3ccccc23)C(=O)N[C@@H](CO)C(=O)N[C@@H](Cc2c[nH]c3ccccc23)C(=O)N1C [Example 5042] ({CH2CO}-Y[NMeA]NP[Dap]Q[Hyp]WSW[NMeNle][NMeNle][Dab]CG-NH2; thioether N-14) | 8.33 to 9.80 | 8.17 to 9.41 |  |  |
